Patent US20090018642A1, “Methods to improve the stability of celluar adhesive proteins and peptides” (BOSTON SCIENTIFIC SCIMED, INC., priority 2007, published 2009)
Read-outs that look alike come from different tables or passages of the source. Blank lines part the entries; values can stand above or below the compound they belong to.

Columns and labels:
[1] = Protocol: A blank solution with PBS only was also prepared.
8 mm Liberte WH stents were placed in the wells of a 48-well polystyrene plate and 240 μl of each peptide concentration (including the blank) was then added to each well. The plates were then incubated for at least 1 hr at room temperature (RT) with gentle shaking (100 rpm) to allow for binding to occur. Excess peptide solution was removed and discard using a micropipette.
The stents were then washed 3 times with 1.5 ml PBS-Tween, with approximately 30 sec of shaking at 150 rpm between washes. 1.5 ml of 1% bovine serum albumin (BSA) in PBS (blocking solution) was then added to each stent and incubated for 1 hr at RT with gentle shaking (100 rpm) to allow for blocking to occur. After 1 hr, excess blocking solution was removed and discarded with a micropipette. The stent was then washed 3 times with 1.5 ml PBS-Tween using the wash method described above.
300 μl of Streptavidin-AP (alkaline phosphatase) solution was added to each stent at 1/1000 in TBS+1% BSA and incubated for 30 min at room temperature with gentle shaking (100 rpm). Excess Streptavidin solution was then removed and discarded. The stents were then washed 2 times with 1.5 ml PBS-Tween and then transferred to a set of new wells on the same plate using tweezers. Once the stents were moved, they were then washed once more with 1.5 ml PBS-Tween. 300 μl of the chromogen p-nitrophenyl phosphate (PNPP) was added to each stent in the 48 well plate. The plate was then placed on the shaker platform and incubated for 5 minutes at 100 rpm to allow color development to occur. 10 μl of sodium hydroxide (NaOH) was then added to the wells of a 96 well tissue culture plate. To stop the color development, 100 μl of the solution in each stent containing well was transferred to a well containing NaOH in the 96 well plate.
Optical density (OD) was determined by reading the 96 well plate in a plate reader (Spectramax Plus, Molecular Devices) at 405 nm in endpoint mode. The measured OD for the blank was subtracted from the ODs for all other solutions. The resulting ODs were plotted (y-axis) vs. concentration (μM) (log x-axis).
The OD at 5 min (405 nm) was measured at 1 hr, 4 hr and 24 hrs as described above.
The OD at 5 min (405 nm) was measured and the EC50 was determined as described above.

[2] = Langmuir isotherm, quartz crystal microbalance with dissipation (QCM-D); assay type: binding
Protocol: Stainless Steel Quartz Crystals (Q-Sense, QSX 304) were cleaned with a UV/Ozone treatment (Bioforce, UV […], Model No. […] The crystals were then immersed in a 2% sodium dodecyl sulfate (SDS) (MPI, Product No. 811036) in dH2O solution for 5 minutes, washed thoroughly with dH2O, N2 dried, and UV/Ozone treated for an additional 10 minutes. Surface Characterization: The QCM-D measurements (Q-Sense E4) were made with a solution flow rate of 100 μL per minute. The experiment was temperature controlled at 25° C. In the experiments, four samples were tested at one time using the QCM-D. Each experiment included running PBS for approximately 10 minutes to establish a stable baseline. The peptide solutions were then added at various concentrations until the change in frequency was 2 Hz per 30 minutes or less. The final step was to wash with PBS for 30 minutes or until the change in frequency was 2 Hz per 30 minutes or less. For analysis purposes (Sauerbrey model, Q-Tools), generally the third overtone was used from each sample.

[3] = on the order of; cited from earlier work
[4] = test system: human coronary artery endothelial cells (HCAEC); assay: HCAEC migration on coated stainless steel strips; assay type: cell-based; conditions: strips pre-coated with 10 μM peptide; 48 hours; uncoated stainless steel normalized to 1; p<0.01
Excerpt: Migration and proliferation of endothelial cells on biomaterials can impact the rates of reendothelization and angiogenesis, which can be important during the development and success of implantable medical devices. In this experiment, the effect of a surface-binding cell adhesion polypeptide on the motility of human coronary artery endothelial cells (HCAEC) on a stainless steel substrate was examined in vitro. The surface-binding cell adhesion polypeptide used in this example included DOPA as a surface binding moiety, a (ALA-Aib)3 linker, and the recognition sequence for laminin receptors (YIGSR) as the cell adhesion polypeptide [(DOPA)2-(ALA-Aib)3-YIGSR-OH, hereinafter PEPTIDE-1] (synthesized at the MGH Peptide/Protein Core Facility, Harvard Medical School, Boston, Mass.).
Human coronary artery endothelial cells (HCAEC, available from Cell Applications, Inc., San Diego, Calif.) were used in this study. The substrates were sterile stainless steel strips [3.5″×0.308″×0.031″] or sterile stainless steel strips coated with PEPTIDE-1.
Collagen gels were prepared using the following protocol: One 10 mg vial of high concentration (HC) Type I collagen (Rat tail, from BD Biosciences, San Jose, Calif.) was diluted with distilled sterile H2O to a final volume of 38 ml and mixed thoroughly without introducing bubbles (by pipetting up and down). […]

Compound: (DOPA)2-(ALA-Aib)3-RIGSY-(Biotin)-OH [PEPTIDE-2]
EC50 ([1]; incubation time study, 1 hr): 310 nM
EC50 ([1]; incubation time study, 4 hr): 300 nM
EC50 ([1]; incubation time study, 24 hr): 270 nM
EC50 ([1]; read-out: half-maximal concentration (EC50), concentration range study, coating 1 hour at room temperature): ~370 nM
affinity for stainless steel in comparison to BSA ([2]; greater affinity than non-specific protein BSA): approx. 3 orders of magnitude

Compound: N[C@@H](Cc1ccc(O)c(O)c1)C(=O)O [DOPA, 3,4 dihydroxyphenylalanine]
binding constant [3]: ~10^16

EC50 ([2]; QCM-D, 25° C.): ≥ 100000 nM
Compound: bovine serum albumin [BSA, reference compound]

EC50 ([2]; QCM-D, 25° C.): 280 nM
Kd ([2]; QCM-D, 25° C., Langmuir isotherm fit): 260 nM
Compound: (Dopa)2-(Ala-Aib)3-RIGSY-OH [PEPTIDE-3]

Compound: (DOPA)2-(ALA-Aib)3-YIGSR-OH [PEPTIDE-1]
HCAEC migration compared to stainless steel alone [4]: 1.7 fold
